Measured values published in patent US20260240878A1, “PTP1B/TC-PTP DUAL INHIBITORS AND PROTEIN DEGRADERS” (Purdue Research Foundation, priority 2023, published 2026).
Where a SMILES comes first, the peptide text is derived from it. [ ]: non-standard residue; d: D form. The star is where a group is joined. NHBn(4-(4-Me-thiazol-5-yl)) = Cc1ncsc1-c1ccc(CN*)cc1; F2Pmp = N[C@@H](Cc1ccc(C(F)(F)P(=O)(O)O)cc1)C(=O)O; Phenylacetyl(4-OH,3-OMe) = COc1cc(CC(=O)*)ccc1O; Benzoyl(3-Br,4-Me) = Cc1ccc(C(=O)*)cc1Br; Hyp = O=C(O)[C@@H]1C[C@@H](O)CN1; dHyp = O=C(O)[C@H]1C[C@H](O)CN1; dTle = CC(C)(C)[C@@H](N)C(=O)O; Tle = CC(C)(C)[C@H](N)C(=O)O; Aoc = NCCCCCCCC(=O)O; Ahx = NCCCCCC(=O)O; Ava = NCCCCC(=O)O

Columns and labels:
TC-PTP [1] = target: T1, TC-PTP (Homo sapiens, UniProt P17706); assay: PTP activity assay with pNPP substrate (IC50, Ki, mode of inhibition); type: biochemical; conditions: pNPP 2 mM, pH 7.0, 25° C.; read-out: IC50, nM TC-PTP
T1 sequence (P17706 1-415): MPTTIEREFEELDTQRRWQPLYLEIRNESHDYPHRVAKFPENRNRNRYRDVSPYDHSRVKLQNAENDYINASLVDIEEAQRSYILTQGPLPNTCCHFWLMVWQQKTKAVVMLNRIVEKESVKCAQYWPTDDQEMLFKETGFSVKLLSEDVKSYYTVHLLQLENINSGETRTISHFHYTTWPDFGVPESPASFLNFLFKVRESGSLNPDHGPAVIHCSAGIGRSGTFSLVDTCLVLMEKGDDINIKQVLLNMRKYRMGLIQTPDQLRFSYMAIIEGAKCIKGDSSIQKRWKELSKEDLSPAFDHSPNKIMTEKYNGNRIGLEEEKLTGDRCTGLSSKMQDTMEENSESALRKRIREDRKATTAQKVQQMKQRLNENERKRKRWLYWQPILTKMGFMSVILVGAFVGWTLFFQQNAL
In short: (§1)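 Hydrolysis of pNPP measured spectrophotometrically in pH 7.0 DMG buffer (EDTA, NaCl, DTT, BSA) at 25 °C, 0.4 nM enzyme. IC50 at 2 mM pNPP (Km) over an inhibitor titration; mode of inhibition and Ki from rates across varied pNPP and inhibitor levels, fitted to enzyme kinetic models.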

PTP1B [2] = target: T2, PTP1B (Homo sapiens, UniProt P18031); assay: as above; type: biochemical; conditions: pNPP 2 mM, pH 7.0, 25° C.; read-out: IC50, nM PTP1B
T2 sequence (P18031 1-435): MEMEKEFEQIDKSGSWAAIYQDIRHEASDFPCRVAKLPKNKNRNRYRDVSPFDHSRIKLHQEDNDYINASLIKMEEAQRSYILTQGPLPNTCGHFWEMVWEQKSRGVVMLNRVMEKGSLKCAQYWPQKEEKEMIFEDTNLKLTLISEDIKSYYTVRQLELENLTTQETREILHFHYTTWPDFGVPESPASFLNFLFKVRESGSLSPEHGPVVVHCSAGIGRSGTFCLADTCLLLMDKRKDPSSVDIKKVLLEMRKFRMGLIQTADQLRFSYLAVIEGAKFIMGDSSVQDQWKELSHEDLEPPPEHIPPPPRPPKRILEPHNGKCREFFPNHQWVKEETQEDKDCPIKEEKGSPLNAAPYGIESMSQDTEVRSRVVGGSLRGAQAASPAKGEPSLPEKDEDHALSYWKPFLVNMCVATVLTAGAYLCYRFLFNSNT
In short: as §1

TC-PTP [3] = target: T1, TC-PTP; assay: Degradation assay in HEK293 cells (immunoblotting); type: cell-based; parameters: Degradation assay was conducted in HEK293 cells with 1 μM degrader and 24 hours incubation; endogenous in cells; host or cells: HEK293; conditions: 1 μM degrader, 24 hours, read-out: % Protein Degradation TC-PTP
Description: (§2) HEK293. MIAPaCa-2, HepG2, U2OS, H116, MEF, B16F10, and MC38 cells, were grown in DMEM, while Jurkat and H358 cells were grown in RPMI 1640 supplemented with 10% fetal bovine serum, penicillin (50 units/mL), and streptomycin (50 μg/mL) in a 37° C. incubator containing 5% CO2. 20 ng/ml human (Biolegend #713906) or mouse (Biolegend #714006) Interferon-γ were used for JAK/STAT pathway stimulation.
(§3) Tissues or cultured cells were lysed with ice-cold lysis buffer (50 mM Tris (pH 8.0, 150 mM NaCl, 10% Glycerol, 1% Triton-X-100) supplied with phosphatase inhibitor (Bimake) and protease inhibitor mixture (Roche Applied Science). Equal amounts of protein were resolved by SDS-PAGE, transferred to nitrocellulose membrane, and subjected to immunoblotting. Antibodies used in this study include anti-following proteins: pSTAT1^Tyr701 (Cell Signaling Technology #9167, 1:3000), GAPDH (Cell Signaling Technology #97166, 1:5000), pJAK1^Tyr1034/1035 (Cell Signaling Technology #74129, 1:1000), pJAK2^Tyr1007/1008 (Cell Signaling Technology #3776, 1:1000), TC-PTP (Abcam #ab180764, 1:3000). PTP1B (Abcam #ab244207, 1:1500).
(§4) Degradation assay was conducted in HEK293 cells with 1 μM degrader and 24 hours incubation.
(§5) The degradation assay was conducted in HEK293 cells with 0.2 μM degrader and 16 hours incubation.

PTP1B [4] = target: T2, PTP1B; assay: Degradation assay in HEK293 cells (immunoblotting); type: cell-based; parameters: Degradation assay was conducted in HEK293 cells with 1 μM degrader and 24 hours incubation; endogenous in cells; host or cells: HEK293; conditions: 1 μM degrader, 24 hours
Description: as §2, §3, §4, §5

TC-PTP [5] = target: T1, TC-PTP; assay: Degradation assay in HEK293 cells (immunoblotting); type: cell-based; parameters: endogenous in cells; host or cells: HEK293; conditions: 0.2 μM degrader, 16 hours, read-out: % Protein Degradation TC-PTP
PTP1B [6] = target: T2, PTP1B; assay: Degradation assay in HEK293 cells (immunoblotting); type: cell-based; parameters: endogenous in cells; host or cells: HEK293; conditions: 0.2 μM degrader, 16 hours

COc1cc(CC(=O)N[C@@H](Cc2ccccc2)C(=O)N[C@@H](Cc2ccc(C(F)(F)P(=O)(O)O)cc2)C(=O)N[C@@H](CCCCNC(=O)c2ccc(C)c(Br)c2)C(=O)NCCCCCC(=O)N[C@H](C(=O)N2C[C@H](O)C[C@H]2C(=O)NCc2ccc(-c3scnc3C)cc2)C(C)(C)C)ccc1O [Compound 8, ((4-((S)-3-(((S)-6-(3-bromo-4-methylbenzamido)-1-((6-(((S)-1-((2S,4R)-4-hydroxy-2-((4-(4-methylthiazol-5-yl)benzyl)carbamoyl)pyrrolidin-1-yl)-3,3-dimethyl-1-oxobutan-2-yl)amino)-6-oxohexyl)amino)-1-oxohexan-2-yl)amino)-2-((S)-2-(2-(4-hydroxy-3-methoxyphenyl)acetamido)-3-phenylpropanamido)-3-oxopropyl)phenyl)difluoromethyl)phosphonic Acid] ({Phenylacetyl(4-OH,3-OMe)}-F[F2Pmp]K(Benzoyl(3-Br,4-Me))[Ahx][Tle][Hyp]-{NHBn(4-(4-Me-thiazol-5-yl))})
IC50 (TC-PTP [1]): 12.8 ± 3.7 nM | IC50 (PTP1B [2]): 16.7 ± 0.9 nM | percent TC-PTP degradation at 1 µM (TC-PTP [3]): 83% | % Protein Degradation PTP1B (PTP1B [4]): 81% | percent TC-PTP degradation at 0.2 µM (TC-PTP [5]): 58% | % Protein Degradation PTP1B (PTP1B [6]): 61%

COc1cc(CC(=O)N[C@@H](Cc2ccccc2)C(=O)N[C@@H](Cc2ccc(C(F)(F)P(=O)(O)O)cc2)C(=O)N[C@@H](CCCCNC(=O)c2ccc(C)c(Br)c2)C(=O)NCCCCC(=O)N[C@@H](C(=O)N2C[C@@H](O)C[C@@H]2C(=O)NCc2ccc(-c3scnc3C)cc2)C(C)(C)C)ccc1O [Compound 6, ((4-((S)-3-(((S)-6-(3-bromo-4-methylbenzamido)-1-((5-(((R)-1-((2R,4S)-4-hydroxy-2-((4-(4-methylthiazol-5-yl)benzyl)carbamoyl)pyrrolidin-1-yl)-3,3-dimethyl-1-oxobutan-2-yl)amino)-5-oxopentyl)amino)-1-oxohexan-2-yl)amino)-2-((S)-2-(2-(4-hydroxy-3-methoxyphenyl)acetamido)-3-phenylpropanamido)-3-oxopropyl)phenyl)difluoromethyl)phosphonic Acid] ({Phenylacetyl(4-OH,3-OMe)}-F[F2Pmp]K(Benzoyl(3-Br,4-Me))[Ava][dTle][dHyp]-{NHBn(4-(4-Me-thiazol-5-yl))})
IC50 (TC-PTP [1]): 34.3 ± 14.8 nM | IC50 (PTP1B [2]): 29.4 ± 2.1 nM | percent TC-PTP degradation at 1 µM (TC-PTP [3]): 58% | % Protein Degradation PTP1B (PTP1B [4]): 53%

COc1cc(CC(=O)N[C@@H](Cc2ccccc2)C(=O)N[C@@H](Cc2ccc(C(F)(F)P(=O)(O)O)cc2)C(=O)N[C@@H](CCCCNC(=O)c2ccc(C)c(Br)c2)C(=O)NCCCCCCCC(=O)N[C@@H](C(=O)N2C[C@@H](O)C[C@@H]2C(=O)NCc2ccc(-c3scnc3C)cc2)C(C)(C)C)ccc1O [Compound 83, ((4-((S)-3-(((S)-6-(3-bromo-4-methylbenzamido)-1-((8-(((R)-1-((2R,4S)-4-hydroxy-2-((4-(4-methylthiazol-5-yl)benzyl)carbamoyl)pyrrolidin-1-yl)-3,3-dimethyl-1-oxobutan-2-yl)amino)-8-oxooctyl)amino)-1-oxohexan-2-yl)amino)-2-((S)-2-(2-(4-hydroxy-3-methoxyphenyl)acetamido)-3-phenylpropanamido)-3-oxopropyl)phenyl)difluoromethyl)phosphonic Acid] ({Phenylacetyl(4-OH,3-OMe)}-F[F2Pmp]K(Benzoyl(3-Br,4-Me))[Aoc][dTle][dHyp]-{NHBn(4-(4-Me-thiazol-5-yl))})
IC50 (TC-PTP [1]): 10.6 ± 0.3 nM | IC50 (PTP1B [2]): 19 ± 1.9 nM | percent TC-PTP degradation at 1 µM (TC-PTP [3]): 66% | % Protein Degradation PTP1B (PTP1B [4]): 58%
